Read-outs that look alike come from different tables or passages of the source.
How the values were obtained:
[1] = test system: T. gondii RH strain (RH-Tub-eYFP) tachyzoites; test: microbe, parasite or virus in culture; format: cell-based, Toxoplasma gondii; conditions: 72 h; for Tg_72h_%Growth_Rep1 / Tg_72h_%Growth_Rep2: % growth; for percent parasite growth at 2 µg/mL: Toxoplasma gondii
[2] = test system: P. falciparum 3D7 parasites; test: P. falciparum growth inhibition assay, 1-cycle (72 h treatment), SYBR DNA staining (library screen at 2 μg/mL and dose-response); format: cell-based, Plasmodium falciparum; conditions: for Pf_72h_%Growth_Rep1 / Pf_72h_%Growth_Rep2: % growth; for activity at 2 µg/mL: Plasmodium falciparum, 3D7, screen at 2 μg/mL
[3] = test system: P. falciparum 3D7 parasites; test: P. falciparum growth inhibition assay, 2-cycle (120 h treatment), delayed-death screen and dose-response; format: cell-based, Plasmodium falciparum; conditions: for Pf_120h_%Growth_Rep1 / Pf_120h_%Growth_Rep2: % growth; for activity at 2 µg/mL: Plasmodium falciparum, 3D7, screen at 2 μg/mL
[4] = library screen at 2 μg/mL, replicate 1
[5] = library screen at 2 μg/mL, replicate 2
[6] = library screen at 2 μg/mL, 72 h, replicate 1
[7] = library screen at 2 μg/mL, 72 h, replicate 2
[8] = library screen at 2 μg/mL, 120 h, replicate 1
[9] = library screen at 2 μg/mL, 120 h, replicate 2
[10] = P. falciparum, 72 h, replicate 1, read-out: Pf_72h_%Growth_Rep1
[11] = P. falciparum, 72 h, replicate 2, read-out: Pf_72h_%Growth_Rep2
[12] = P. falciparum, 120 h, replicate 1, read-out: Pf_120h_%Growth_Rep1
[13] = P. falciparum, 120 h, replicate 2, read-out: Pf_120h_%Growth_Rep2
[14] = T. gondii, parasite screen at 2 μg/mL, replicate 1
[15] = T. gondii, parasite screen at 2 μg/mL, replicate 2
[16] = P. falciparum 3D7, 72 h, parasite screen at 2 μg/mL, replicate 1
[17] = P. falciparum 3D7, 72 h, parasite screen at 2 μg/mL, replicate 2
[18] = P. falciparum 3D7, 120 h, parasite screen at 2 μg/mL, replicate 1
[19] = P. falciparum 3D7, 120 h, parasite screen at 2 μg/mL, replicate 2

For CC(C)CCC[C@@H](C)[C@@H]1CC[C@]2(C)C3=C(CC[C@@]12C)[C@@]1(C)CC[C@H](O)C(C)(C)[C@@H]1CC3 [Dihydroeuphol], the Tg_72h_%Growth_Rep1 [1, 4] was 139.10%, the Tg_72h_%Growth_Rep2 [1, 5] was 102.23% and the Pf_72h_%Growth_Rep1 [2, 6] was 82.89%. For the same compound, the Pf_72h_%Growth_Rep2 [2, 7] was 91.07%, the Pf_120h_%Growth_Rep1 [3, 8] was 82.20% and the Pf_120h_%Growth_Rep2 [3, 9] was 96.98%.
CC(=O)NCCc1cnc[nH]1 [Acetylhistamine, N-] was tested, and the Tg_72h_%Growth_Rep1 [1, 4] was 95.97%, the Tg_72h_%Growth_Rep2 [1, 5] was 105.85% and the Pf_72h_%Growth_Rep1 [2, 6] was 82.83%. It also gave a Pf_72h_%Growth_Rep2 [2, 7] of 91.72%, a Pf_120h_%Growth_Rep1 [3, 8] of 90.99% and a Pf_120h_%Growth_Rep2 [3, 9] of 93.21%.
CC(=O)Nc1c2sscc-2n(C)c1=O [Thiolutin] gave a percent parasite growth at 2 µg/mL ([1]; T. gondii, screen at 2 μg/mL, replicate 1, read-out: Tg_72h_%Growth_Rep1) of 2.01%, a percent parasite growth at 2 µg/mL ([1]; T. gondii, screen at 2 μg/mL, replicate 2, read-out: Tg_72h_%Growth_Rep2) of 1.94% and an activity at 2 µg/mL [2, 10] of 4.59%. For the same compound, the activity at 2 µg/mL [2, 11] was 0.05%, the activity at 2 µg/mL [3, 12] was 42.4% and the activity at 2 µg/mL [3, 13] was 15.5%.
In the case of COc1ccc2c(c1OC)C(=O)O[C@@H]2[C@H]1c2c(cc3c(c2OC)OCO3)CCN1C [BIA-N1938], the Tg_72h_%Growth_Rep1 [1, 14] is reported as 85.42%, the Tg_72h_%Growth_Rep2 [1, 15] is reported as 102.99% and the Pf_72h_%Growth_Rep1 [2, 16] is reported as 84.86%. The Pf_72h_%Growth_Rep2 [2, 17] was 78.38%, the Pf_120h_%Growth_Rep1 [3, 18] was 166.83% and the Pf_120h_%Growth_Rep2 [3, 19] was 79.12%.
Compound COc1cc(C[C@H]2C(=O)OC[C@@H]2Cc2ccc3c(c2)OCO3)ccc1O [Pluviatolide] has a Tg_72h_%Growth_Rep1 ([1]; T. gondii, parasite screen 2 μg/mL, replicate 1) of 140.42%, a Tg_72h_%Growth_Rep2 ([1]; T. gondii, parasite screen 2 μg/mL, replicate 2) of 93.56% and a Pf_72h_%Growth_Rep1 ([2]; P. falciparum, 72 h, parasite screen 2 μg/mL, replicate 1) of 81.43%. It also gave a Pf_72h_%Growth_Rep2 ([2]; P. falciparum, 72 h, parasite screen 2 μg/mL, replicate 2) of 88.63%, a Pf_120h_%Growth_Rep1 ([3]; P. falciparum, 120 h, parasite screen 2 μg/mL, replicate 1) of 90.86% and a Pf_120h_%Growth_Rep2 ([3]; P. falciparum, 120 h, parasite screen 2 μg/mL, replicate 2) of 133.22%.
Work on CCCC(=O)OC1C(C)OC(OC2C(C)OC(OC3C(CC=O)CC(C)C(O)C=CC=CCC(C)OC(=O)CC(OC(C)=O)C3OC)C(O)C2N(C)C)CC1(C)O (centres unmarked) [BIA-L1364] yielded a Tg_72h_%Growth_Rep1 ([1]; T. gondii RH, library screen at 2 μg/mL, replicate 1) of 19.43%, a Tg_72h_%Growth_Rep2 ([1]; T. gondii RH, library screen at 2 μg/mL, replicate 2) of 27.43% and a Pf_72h_%Growth_Rep1 ([2]; P. falciparum 3D7, 72 h, library screen at 2 μg/mL, replicate 1) of 50.48%. The Pf_72h_%Growth_Rep2 ([2]; P. falciparum 3D7, 72 h, library screen at 2 μg/mL, replicate 2) was 43.27%, the Pf_120h_%Growth_Rep1 ([3]; P. falciparum 3D7, 120 h, library screen at 2 μg/mL, replicate 1) was 4.30% and the Pf_120h_%Growth_Rep2 ([3]; P. falciparum 3D7, 120 h, library screen at 2 μg/mL, replicate 2) was -1.28%.
C[C@H]1[C@H](C)CC[C@]2(C(=O)O)CC[C@]3(C)C(=CC[C@@H]4[C@@]5(C)CC[C@H](O)C(C)(C)[C@@H]5CC[C@]43C)[C@H]12 [Ursolic acid] was tested, and the percent parasite growth at 2 µg/mL ([1]; read-out: Tg_72h_%Growth_Rep1) was 96%, the percent parasite growth at 2 µg/mL ([1]; read-out: Tg_72h_%Growth_Rep2) was 92.8% and the activity at 2 µg/mL [2, 10] was 77.7%. It also gave an activity at 2 µg/mL [2, 11] of 84%, an activity at 2 µg/mL [3, 12] of 155% and an activity at 2 µg/mL [3, 13] of 79.7%.
Work on COc1cc2nccc3c4ccccc4n(c1=O)c23 [BIA-M1940] yielded a Tg_72h_%Growth_Rep1 [1, 14] of 156.47%, a Tg_72h_%Growth_Rep2 [1, 15] of 73.09% and a Pf_72h_%Growth_Rep1 [2, 16] of 95.54%. The Pf_72h_%Growth_Rep2 [2, 17] was 122.74%, the Pf_120h_%Growth_Rep1 [3, 18] was 112.19% and the Pf_120h_%Growth_Rep2 [3, 19] was 105.38%.
In the case of CC[C@]1(C)C[C@@H](OC(=O)CO)C2(C)[C@H](C)CCC3(CCC(=O)[C@H]32)[C@@H](C)[C@@H]1O (some centres unmarked) [Dihydropleuromutilin], the Tg_72h_%Growth_Rep1 [1, 4] is reported as 80.68%, the Tg_72h_%Growth_Rep2 [1, 5] is reported as 63.68% and the “Screen (T. gondii)” value ([1]; library screen at 2 μg/mL, RH strain) is reported as “I, I”. For the same compound, the “Screen (P. falciparum)” value ([2]; library screen at 2 μg/mL, 3D7, 72 h, DD from the 120 h timepoint) was “I, I”, the Pf_72h_%Growth_Rep1 [2, 6] was 84.27% and the Pf_72h_%Growth_Rep2 [2, 7] was 76.59%. It also gave a Pf_120h_%Growth_Rep1 [3, 8] of 42.82% and a Pf_120h_%Growth_Rep2 [3, 9] of 51.71%.
With CC[C@H]1OC(=O)[C@H](C)[C@@H](O[C@H]2C[C@@](C)(OC)[C@@H](O)[C@H](C)O2)[C@H](C)[C@@H](O[C@@H]2O[C@H](C)C[C@H]([N+](C)(C)[O-])[C@H]2O)[C@](C)(O)C[C@@H](C)C(=O)[C@H](C)[C@@H](O)[C@]1(C)O [Erythromycin A N-oxide] the Tg_72h_%Growth_Rep1 [1, 4] was 107.95%, the Tg_72h_%Growth_Rep2 [1, 5] was 98.15% and the Pf_72h_%Growth_Rep1 [2, 6] was 82.02%. For the same compound, the Pf_72h_%Growth_Rep2 [2, 7] was 85.53%, the Pf_120h_%Growth_Rep1 [3, 8] was 82.07% and the Pf_120h_%Growth_Rep2 [3, 9] was 80.30%.

— PMC12396409, “Screening and hit evaluation of a microbial metabolite library against the pathogenic Plasmodium falciparum and Toxoplasma gondii parasites” (International Journal for Parasitology: Drugs and Drug …, 2025)
